Here are results for 34 compounds from ChEMBL document CHEMBL3046865, “Antibacterial activity of alkyl gallates and related compounds against Ralstonia solanacearum” (2011).

The source made the active and inactive calls. The rule behind the calls is not given here.

Experiment [1] concerns Ralstonia solanacearum. The experiment is classed as functional.
The subject of experiment [2] is Ralstonia solanacearum.
Experiment [3] has as its system Ralstonia solanacearum. The source holds these as a separate data set.
Experiment [4] has as its system Ralstonia solanacearum. The experiment is classed as functional. This is another data set of the same source.
The test system of experiment [5] is Ralstonia solanacearum. The experiment is classed as functional. The source holds these as a separate data set.
Experiment [6] relates to Ralstonia solanacearum. The experiment is classed as functional. The source holds these as a separate data set.

Consider `COC(=O)c1ccc(OC)cc1O`, for which the “diameter of the inhibition zone (DIZ)” value in experiment [1] worked out at 11 mm. Besides, the DIZ entry in experiment [2] is “inactive”.
Consider `CCCCCCCCCCCCOC(=O)c1cc(O)c(O)c(O)c1`, for which the DIZ entry in experiment [3] and in experiment [2] was “inactive” in each case.
As for `CCCCCCCCCOC(=O)c1ccc(O)cc1`, the DIZ entry in experiment [3] and in experiment [2] was “inactive” throughout.
In the case of `COC(=O)c1cc(OC)cc(OC)c1`, the DIZ entry in experiment [3] and in experiment [2] was “inactive” throughout.
Take `COC(=O)c1ccccc1O`: the DIZ entry in experiment [3] and in experiment [2] was “inactive” each time.
In the case of `COc1cc(/C=C/C(=O)O)cc(OC)c1O`, the DIZ result in experiment [3] and in experiment [2] was “inactive” throughout.
Consider `COc1cc(/C=C/C(=O)O)ccc1O`, for which the DIZ entry in experiment [3] and in experiment [2] was “inactive” throughout.
With `COc1ccc(/C=C/C(=O)O)cc1O`, the DIZ entry in experiment [3] and in experiment [2] was “inactive” throughout.
Regarding `C[C@@H]1O[C@@H](OC[C@H]2O[C@@H](Oc3c(-c4ccc(O)c(O)c4)oc4cc(O)cc(O)c4c3=O)[C@H](O)[C@@H](O)[C@@H]2O)[C@H](O)[C@H](O)[C@H]1O`, the DIZ entry in experiment [3] and in experiment [2] was “inactive” in each case.
For `O=C(/C=C/c1ccc(O)c(O)c1)O[C@@H]1C[C@](O)(C(=O)O)C[C@@H](O)[C@H]1O`, the DIZ result in experiment [3] and in experiment [2] was “inactive” each time.
As to `O=C(O)/C=C/c1ccc(O)c(O)c1`, the DIZ result in experiment [3] and in experiment [2] was “inactive” each time.
As for `O=c1c(O)c(-c2ccc(O)c(O)c2)oc2cc(O)cc(O)c12`, the DIZ result in experiment [3] and in experiment [2] was “inactive” throughout.
Consider `O=c1oc2c(O)c(O)cc3c(=O)oc4c(O)c(O)cc1c4c23`, for which the DIZ entry in experiment [3] and in experiment [2] was “inactive” in each case.
Turning to `O=C(O)c1cccc(O)c1` [3-HYDROXYBENZOIC ACID], the “diameter of the inhibition zone (DIZ)” value in experiment [1] is recorded as 14 mm. In experiment [2], the DIZ entry is “inactive”.
The like results for `O=C(O)/C=C/c1ccccc1` [CINNAMIC ACID] were, in that order, 13 mm and “inactive”.
The corresponding values for `O=C(O)/C=C/c1ccc(O)cc1` [COUMARIC ACID] are 11 mm and “inactive”.
As for `CCOC(=O)c1cc(O)c(O)c(O)c1` [ETHYLGALLATE], the “diameter of the inhibition zone (DIZ)” value in experiment [4] is listed as 18 mm; in experiment [1], 42 mm.
As for `CCOC(=O)c1ccc(O)cc1` [ETHYLPARABEN], the “diameter of the inhibition zone (DIZ)” value in experiment [1] came out at 29 mm. The DIZ entry in experiment [2] is “inactive”.
For `COC(=O)c1cc(O)c(O)c(O)c1` [GALLIC ACID METHYL ESTER], the “diameter of the inhibition zone (DIZ)” value in experiment [4] is on record as 22 mm; in experiment [5], 18 mm; in experiment [1], 54 mm; in experiment [6], 11 mm.
For the compound `O=C(O)c1cc(O)c(O)c(O)c1` [GALLIC ACID], in experiment [1], the “diameter of the inhibition zone (DIZ)” value is listed as 12 mm. Moreover, in experiment [2], the DIZ result was “inactive”.
Take `COC(=O)c1cccc(O)c1O` [METHYL 2,3-DIHYDROXYBENZOATE]: the “diameter of the inhibition zone (DIZ)” value was determined as 13 mm in experiment [4] and 58 mm in experiment [1].
Consider `COC(=O)c1ccc(O)cc1O` [METHYL 2,4-DIHYDROXYBENZOATE], for which the “diameter of the inhibition zone (DIZ)” value in experiment [1] is listed as 32 mm. Also, in experiment [2], the DIZ result was “inactive”.
The like results for `COC(=O)c1cc(O)ccc1O` [METHYL 2,5-DIHYDROXYBENZOATE] were, in that order, 43 mm and “inactive”.
The corresponding values for `COC(=O)c1cc(O)cc(O)c1` [METHYL 3,5-DIHYDROXYBENZOATE] are 18 mm and “inactive”.
Consider `COC(=O)c1cccc(O)c1` [METHYL 3-HYDROXYBENZOATE], for which the “diameter of the inhibition zone (DIZ)” value in experiment [1] is given as 23 mm. Moreover, the DIZ result in experiment [2] is “inactive”.
As to `COC(=O)c1ccc(O)c(O)c1` [METHYL PROTOCATECHUATE], the entries for the “diameter of the inhibition zone (DIZ)” value in experiment [4] and in experiment [1] were 11 mm and 37 mm, respectively.
On to `COC(=O)c1ccc(O)c(OC)c1` [METHYL VANILLATE], for which, in experiment [1], the “diameter of the inhibition zone (DIZ)” value was determined as 15 mm. The DIZ result in experiment [2] was “inactive”.
The like results for `COC(=O)c1ccc(O)cc1` [METHYLPARABEN] were, in that order, 36 mm and “inactive”.
As for `O=C(O)/C=C/c1ccccc1O` [O-COUMARIC ACID], the “diameter of the inhibition zone (DIZ)” value in experiment [1] was found to be 16 mm. For the same compound, in experiment [2], the DIZ entry was “inactive”.
Turning to `CCCCCCCCOC(=O)c1cc(O)c(O)c(O)c1` [OCTYL_GALLATE], the “diameter of the inhibition zone (DIZ)” value in experiment [4] was found to be 11 mm; in experiment [1] it was 12 mm.
Regarding `O=C(O)c1ccc(O)cc1` [PARABEN], the “diameter of the inhibition zone (DIZ)” value in experiment [1] is on record as 13 mm. The DIZ entry in experiment [2] was “inactive”.
Consider `CCCOC(=O)c1cc(O)c(O)c(O)c1` [PROPYL GALLATE], for which the results for the “diameter of the inhibition zone (DIZ)” value in experiment [4] and in experiment [1] were 11 mm and 31 mm, respectively.
As to `CCCOC(=O)c1ccc(O)cc1` [PROPYLPARABEN], the “diameter of the inhibition zone (DIZ)” value in experiment [1] amounted to 17 mm. Besides, the DIZ result in experiment [2] was “inactive”.
For `O=C(O)c1ccccc1O` [SALICYLIC ACID], in experiment [1], the “diameter of the inhibition zone (DIZ)” value is 16 mm.
